Assay results reported in article PMC7448123, “Ru(II) Complexes Bearing O, O-Chelated Ligands Induced Apoptosis in A549 Cells through the Mitochondrial Apoptotic Pathway” (Bioinorganic Chemistry and Applications, 2020).

Columns and labels:
[1] = Solution stability by UV-Vis absorption in water and CH3CN; assay type: physicochemical; conditions: 298 K, over 24 h, 20 μM
Protocol: (N-N = dip, dmp) and salicylic acid in the presence of sodium hydroxide. The crude product was purified by chromatography over alumina. The obtained compounds were analyzed by elemental analysis, ESI-MS, ^1H NMR, FTIR, and UV-Vis absorption spectroscopy, and the results were shown in Figures S1–S7 in Supplementary Materials. […] In the UV-visible spectral regions, both complexes consist of two well-resolved absorption bands. In the visible region, these two complexes present a strong MLCT transition at 500–600 nm attributed to the overlap Ru(dπ)-dip or dmp (π^∗) and Ru(dπ)-SA (π^∗). The intense band occurring between 250 nm and 300 nm is attributed to an intra-ligand (IL) π-π^∗ transition by comparing with the spectra of other Ru(II)-polypyridyl complexes.

[2] = tested on: A549 cells; assay: Comet assay (single-cell gel electrophoresis), DNA damage; assay type: cell-based, human; conditions: 10 μM, 12 h
Protocol: Single-cell gel electrophoresis was performed to detect DNA damage, as previously described. Comet assay was performed according to the manufacturer's instructions. DNA was stained with SYBR Green I (Trevigen) and imaged under an inverted fluorescence microscope.
Excessive intracellular ROS can activate DNA damaged sensor proteins and lead to DNA damage, an essential hallmark of cell apoptosis. Indeed, the DNA damage effect has been observed in many previously developed Ru(II) complexes. To determine whether or not these complexes can induce DNA damage, the single-cell gel electrophoresis assay (comet assay) was conducted in our study. […] Also, the comet assay (DNA fragments appearance) could serve as a mark for apoptosis assessment. As shown in Figure 6(a), in the control group, there was no comet-like cell observed. […] Increasing the concentration to 20 μM recorded markedly higher levels of comet tails, showing that more DNA fragmentation has occurred.

[3] = tested on: A549 cells; assay: Cellular uptake and subcellular distribution by ICP-MS; assay type: cell-based, human
Protocol: A549 cells were seeded into six-well plates (5.0 × 10^5 cells per well) and grown overnight at 37°C in a 5% CO2 incubator. The cells were incubated with the different concentrations (5, 10, 15, and 20 μM) of Ru(II) complexes for different time intervals (1, 3, and 6 h). After the incubation, the cells were harvested and washed twice with PBS. Cell Mitochondria Isolation Kit was used to extract the nuclear, mitochondrial, and cytoplasmic fractions of the A549 cells. The pellets were digested with 3 mL concentrated nitric acid and 1 mL perhydrol for 24 h and then diluted to 5 mL with ultrapure water. Finally, ICP-MS was used to determine the amount of Ru(II) complexes uptaken by A549 cells.
It is generally acknowledged that the cellular uptake feature of transition metal-based compounds is an essential factor for their biological activities. As repeatedly reported by previous ruthenium complex-related studies, the more cellular uptake results in higher cytotoxicity. The cellular ruthenium concentration was determined by using ICP-MS after 1, 3, and 6 h of exposure to 5, 10, 15, and 20 μM Ru(II) complexes (Figure 2), respectively, and the results were reported as ng of ruthenium per 10^6 cell number.

[4] = tested on: MCF-7 (breast cancer); assay: MTT cytotoxicity assay, MCF-7; assay type: cell-based, human
[5] = Stability towards GSH and BSA by UV-Vis absorption; assay type: physicochemical; conditions: 12 h, 37 °C, PBS buffer (pH 7.4)
Protocol: Investigating the hydrolysis in the presence of biorelevant molecules is very important to assess the chemical stability and biological activities of these title complexes.
Figure S8. UV/vis absorption of Ru-1 in the absence and presence of (A) GSH or (B) BSA. All spectra were acquired 12 h after GSH or BSA addition at 37 °C in PBS buffer (pH 7.4).
Figure S9. UV/vis absorption of Ru-2 in the absence and presence of (A) GSH or (B) BSA. All spectra were acquired 12 h after GSH or BSA addition at 37 °C in PBS buffer (pH 7.4).

[6] = tested on: A549 cells; assay: Annexin V-FITC/PI apoptosis flow cytometry; assay type: cell-based, human; conditions: 24 h
Protocol: (§1) First, A549 cells were incubated in six-well plates for 12 h and then exposed to Ru(II) complexes for 24 h. After incubation, cell nuclei were stained with Hoechst 33342 (5 μg/mL) for 10 min, washed twice with PBS, and then photographed using an inverted fluorescence microscope. […] The suspension was stained with 5 μL Annexin V-FITC and 10 μL PI at room temperature for 15 min and then analyzed using the flow cytometer.

[7] = tested on: HepG2 (human hepatocellular carcinoma); assay: MTT cytotoxicity assay, HepG2; assay type: cell-based
[8] = tested on: A549 cells; assay: Intracellular ROS level, DCFH-DA flow cytometry; assay type: cell-based, human; conditions: 20 μM, 12 h
Protocol: The mitochondrial membrane potential (MMP) of A549 cells was analyzed by using an inverted fluorescence microscope and flow cytometry. […] For microscope observation, the collected cells were incubated in complete medium containing JC-1 (10 μg/mL) for 30 min and washed with PBS twice and then imaged by an inverted fluorescence microscope (Nikon, Japan). For flow cytometry analysis, the cells were trypsinized and washed twice with PBS and then incubated in 500 μL PBS containing JC-1 (10 μg/mL) for 30 min at 37°C. The cells were analyzed by flow cytometer immediately. The intracellular ROS level of A549 cells was detected after DCFH-DA stain, as illustrated in our new publication.
Increasing intracellular ROS levels can trigger cell apoptosis. […] To explore the roles of ROS in Ru(II) complex-induced cell apoptosis, we detected intracellular ROS levels by using an inverted fluorescence microscope and flow cytometry after staining A549 cells with DCFH-DA fluorescent dye.

[9] = tested on: A549 (human lung carcinoma); assay: MTT cytotoxicity assay, A549; assay type: cell-based; conditions: 48 h, MTT
[10] = tested on: BEAS-2B (immortalized human bronchial epithelial cells); assay: MTT cytotoxicity assay, normal BEAS-2B; assay type: cell-based; conditions: 48 h
[11] = tested on: HeLa (human cervical cancer); assay: MTT cytotoxicity assay, HeLa; assay type: cell-based; conditions: 48 h
[12] = tested on: A549 cells; assay: Western blotting of apoptosis, Bcl-2 family and DNA damage proteins; assay type: cell-based, human
Protocol: Glyceraldehyde-3-phosphate dehydrogenase (GAPDH) was used as an internal control. The protein concentrations were determined by BCA Protein Assay Kit.

[13] = tested on: zebrafish embryos; assay: In vivo toxicity on developing zebrafish embryos
[14] = tested on: A549 cells; assay: Hoechst 33342 nuclear staining; assay type: cell-based, human; conditions: 20 μΜ, 24 h
Protocol: as §1

[15] = tested on: E. histolytica; parameters: method as in PMID 17154516; conditions: read-out: IC50 anti-E. histolytica activity in vitro; cited from earlier work

## O=C1[O][Ru][O]c2ccccc21.c1ccc(-c2ccnc3c2ccc2c(-c4ccccc4)ccnc23)cc1.c1ccc(-c2ccnc3c2ccc2c(-c4ccccc4)ccnc23)cc1 [Ru-1, [Ru(dip)2(SA)]]
[1]
  change in UV-Vis absorption spectra (solution stability): no significant change
[2]
  DNA fragmentation, comet assay: well-formed comet tails
[3]; 5 μM, 1 h
  Intracellular content of Ru: 120.3 ± 9.5 ng Ru/10^6 A549 cell number
[3]; 5 μM, 3 h
  Intracellular content of Ru: 168.5±13.0 ng Ru/10^6 A549 cell number
[3]; 5 μM, 6 h
  Intracellular content of Ru: 241.2±10.6 ng Ru/10^6 A549 cell number
[3]; 10 μM, 1 h
  Intracellular content of Ru: 146.3±13.7 ng Ru/10^6 A549 cell number
[3]; 10 μM, 3 h
  Intracellular content of Ru: 216.8±16.9 ng Ru/10^6 A549 cell number
[3]; 10 μM, 6 h
  Intracellular content of Ru: 299.4±1.2 ng Ru/10^6 A549 cell number
[3]; 15 μM, 1 h
  Intracellular content of Ru: 178.5±15.4 ng Ru/10^6 A549 cell number
[3]; 15 μM, 3 h
  Intracellular content of Ru: 246.7±25.4 ng Ru/10^6 A549 cell number
[3]; 15 μM, 6 h
  Intracellular content of Ru: 343.8±17.0 ng Ru/10^6 A549 cell number
[3]; 20 μM, 1 h
  Intracellular content of Ru: 215.9±19.4 ng Ru/10^6 A549 cell number
[3]; 20 μM, 3 h
  Intracellular content of Ru: 312.4±21.5 ng Ru/10^6 A549 cell number
[3]; 20 μM, 6 h
  Intracellular content of Ru: 432.5 ± 12.4 ng Ru/10^6 A549 cell number
[3]; 20 μM, nuclear, mitochondrial and cytoplasmic fractions
  Subcellular distribution: mostly accumulated in the cell nucleus, followed by mitochondria
[4]; 48 h
  IC50: 29.5 ± 2.2 µM
[5]
  change in characteristic absorption with excessive GSH or BSA (stability): no significant change
[6]; 5 μM
  early apoptotic cells (I4): 14.71%
  late apoptotic/necrotic cells (I2): 7.13%
[6]; 10 μM
  early apoptotic cells (I4): 16.27%
[6]; 20 μM
  early apoptotic cells (I4): 21.57%
  late apoptotic/necrotic cells (I2): 20.78%
[7]; 48 h
  IC50: 15.4 ± 1 µM
[8]
  MFI higher than the control group: about 3.0 fold
[9]
  IC50: 11.3 ± 1.1 µM
[10]
  IC50: 54.3 ± 3.4 µM
[11]
  IC50: 20.1 ± 1.3 µM
[12]
  cytochrome c expression in cytosol: apparent enhancement
  expression levels of antiapoptotic proteins Bcl-2 and Bcl-xl: downregulated
  expression of proapoptotic protein Bax and Bad: increased expression
  phosphorylation levels of Chk1 and Chk2: increased
[12]; 24 h, concentration-dependent
  expression of cleaved-PARP, cleaved caspase-3/8/9: increased
  expression of total caspase-3/8: decreased
[12]; concentration-dependent
  phosphorylation levels of ATM, ATR, histone, and p53: upregulation
[13]; 12.5 μM
  cumulative hatch rate and lethality rate: no difference compared with those of the control group
[13]; 100 μM, after 96 h
  lethality rate: lower than 35%
[13]; 200 μM, after 72 h treatment
  cumulative hatch: lower than 70%
[13]; 200 μM, at 96 h
  unhealthy features observed: pericardial cysts and spine curvature
[13]; 12.5 to 50 μM
  side effects: no apparent side effects
[13]; concentration lower than 50 μM, after 96 h
  development of embryos: all zebrafish embryos can develop into juvenile zebrafish
[13]; concentration lower than 100 μM, at 96 h
  malformation: no malformation was observed
[14]
  apoptotic features, Hoechst 33342 staining: chromatin condensation, nuclear fragmentation, and plasma membrane blebbing

## Cc1ccc2ccc3ccc(C)nc3c2n1.Cc1ccc2ccc3ccc(C)nc3c2n1.O=C1[O][Ru][O]c2ccccc21 [Ru-2, [Ru(dmp)2(SA)]]
[1]
  change in UV-Vis absorption spectra (solution stability): no significant change
[2]
  DNA fragmentation, comet assay: well-formed comet tails
[3]; 5 μM, 1 h
  Intracellular content of Ru: 85.4 ± 9.3 ng Ru/10^6 A549 cell number
[3]; 5 μM, 3 h
  Intracellular content of Ru: 112.4±9.5 ng Ru/10^6 A549 cell number
[3]; 5 μM, 6 h
  Intracellular content of Ru: 142.5±9.6 ng Ru/10^6 A549 cell number
[3]; 10 μM, 1 h
  Intracellular content of Ru: 99.4±9.6 ng Ru/10^6 A549 cell number
[3]; 10 μM, 3 h
  Intracellular content of Ru: 134.6±8.3 ng Ru/10^6 A549 cell number
[3]; 10 μM, 6 h
  Intracellular content of Ru: 173.2±8.9 ng Ru/10^6 A549 cell number
[3]; 15 μM, 1 h
  Intracellular content of Ru: 115.8±11.7 ng Ru/10^6 A549 cell number
[3]; 15 μM, 3 h
  Intracellular content of Ru: 159.4±8.5 ng Ru/10^6 A549 cell number
[3]; 15 μM, 6 h
  Intracellular content of Ru: 204.6±8.9 ng Ru/10^6 A549 cell number
[3]; 20 μM, 1 h
  Intracellular content of Ru: 138.7±15.3 ng Ru/10^6 A549 cell number
[3]; 20 μM, 3 h
  Intracellular content of Ru: 181.3±9.3 ng Ru/10^6 A549 cell number
[3]; 20 μM, 6 h
  Intracellular content of Ru: 235.2 ± 16.6 ng Ru/10^6 A549 cell number
[4]; 48 h
  IC50: 45.7 ± 3.7 µM
[5]
  change in characteristic absorption with excessive GSH or BSA (stability): no significant change
[6]; 5 μM
  early apoptotic cells (I4): 2.79%
  late apoptotic/necrotic cells (I2): 0.00%
[6]; 10 μM
  early apoptotic cells (I4): 15.83%
[6]; 20 μM
  early apoptotic cells (I4): 15.47%
  late apoptotic/necrotic cells (I2): 10.19%
[7]; 48 h
  IC50: 26.4 ± 2.1 µM
[8]
  MFI higher than the control group: ~1.9 fold
[9]
  IC50: 30.1 ± 1.2 µM
[10]
  IC50: 48.1 ± 3.7 µM
[11]
  IC50: 32.5 ± 2.4 µM
[14]
  apoptotic features, Hoechst 33342 staining: chromatin condensation, nuclear fragmentation, and plasma membrane blebbing

## O=C(O)c1ccccc1O [SA, salicylic acid]
[4]; Homo sapiens, MCF7, 48 h
  IC50: > 200 µM
[7]; Homo sapiens, HepG2, 48 h
  IC50: > 200 µM
[9]; Homo sapiens, A549
  IC50: > 200 µM
[11]; Homo sapiens, HeLa
  IC50: > 200 µM

## CC(=O)C=C(C)[O-].[Cl-].[Ru+2].c1ccc(CCSCCSCCc2ccccn2)nc1 [[Ru(acac)(pdto)]Cl]
[15]
  IC50: 60 nM
